From patent publication US7691965B2, “Helical synthetic peptides that stimulate cellular cholesterol efflux” (The Regents of the University of California, priority 2002, dated 2010) come the findings set out here.

Where a SMILES comes first, the peptide text is derived from it.

In data set [1] the target is T1, ABCA1 (Mus musculus, UniProt P41233). The experiment in a line: Cellular cholesterol efflux from [3H]cholesterol-labeled J774 macrophages with and without cAMP analog. Type of data set: cell-based. Also on record: endogenous in cells; host or cells: J774 macrophages treated with a cAMP analog (CPT-cAMP or 8-bromo-cAMP). The conditions noted are these: for ABCA1-dependent cholesterol efflux (result in words): lipid-free acceptor, J774 macrophages with vs without cAMP analog. From the text: Suitable cholesterol efflux assays are described in, e.g., Bielicki, J. K and Oda, M. N., Biochemistry, 41:2089-2096 (2002); Jia, Z. et al., Biochem. Biophys. Res. Common., 297:206-213 (2002). In some embodiments, a polypeptide known to mediate cholesterol efflux (e.g., helix 9/10 of Apo A-I) is used to screen for additional mediators of cholesterol efflux in a cell based assay. For example, cell lines in which cholesterol efflux can be enhanced using a cAMP analog that up-regulates ABCA1 protein expression (e.g., J774 macrophages) can conveniently be used to assess the ability of an Apo A-I, Apo A-II, Apo A-IV, Apo E, Apo C-I, Apo C-II, Apo C-III, or Serum Amyloid A peptide to mediate cholesterol efflux. The cells are incubated with labeled cholesterol (e.g., [^3H]cholesterol) under conditions appropriate for cholesterol uptake by the cells. cAMP or cAMP analogs (e.g., CPT-cAMP) is incubated with the cells for a suitable time before the initiation of cellular cholesterol efflux, i.e., prior to contacting the cells with helix 9/10 of Apo A-I or the test compound. Measurement of labeled cholesterol appearing in the medium is used to determine the cholesterol efflux mediating activity of the test compound.
T1 sequence (P41233 whole entry): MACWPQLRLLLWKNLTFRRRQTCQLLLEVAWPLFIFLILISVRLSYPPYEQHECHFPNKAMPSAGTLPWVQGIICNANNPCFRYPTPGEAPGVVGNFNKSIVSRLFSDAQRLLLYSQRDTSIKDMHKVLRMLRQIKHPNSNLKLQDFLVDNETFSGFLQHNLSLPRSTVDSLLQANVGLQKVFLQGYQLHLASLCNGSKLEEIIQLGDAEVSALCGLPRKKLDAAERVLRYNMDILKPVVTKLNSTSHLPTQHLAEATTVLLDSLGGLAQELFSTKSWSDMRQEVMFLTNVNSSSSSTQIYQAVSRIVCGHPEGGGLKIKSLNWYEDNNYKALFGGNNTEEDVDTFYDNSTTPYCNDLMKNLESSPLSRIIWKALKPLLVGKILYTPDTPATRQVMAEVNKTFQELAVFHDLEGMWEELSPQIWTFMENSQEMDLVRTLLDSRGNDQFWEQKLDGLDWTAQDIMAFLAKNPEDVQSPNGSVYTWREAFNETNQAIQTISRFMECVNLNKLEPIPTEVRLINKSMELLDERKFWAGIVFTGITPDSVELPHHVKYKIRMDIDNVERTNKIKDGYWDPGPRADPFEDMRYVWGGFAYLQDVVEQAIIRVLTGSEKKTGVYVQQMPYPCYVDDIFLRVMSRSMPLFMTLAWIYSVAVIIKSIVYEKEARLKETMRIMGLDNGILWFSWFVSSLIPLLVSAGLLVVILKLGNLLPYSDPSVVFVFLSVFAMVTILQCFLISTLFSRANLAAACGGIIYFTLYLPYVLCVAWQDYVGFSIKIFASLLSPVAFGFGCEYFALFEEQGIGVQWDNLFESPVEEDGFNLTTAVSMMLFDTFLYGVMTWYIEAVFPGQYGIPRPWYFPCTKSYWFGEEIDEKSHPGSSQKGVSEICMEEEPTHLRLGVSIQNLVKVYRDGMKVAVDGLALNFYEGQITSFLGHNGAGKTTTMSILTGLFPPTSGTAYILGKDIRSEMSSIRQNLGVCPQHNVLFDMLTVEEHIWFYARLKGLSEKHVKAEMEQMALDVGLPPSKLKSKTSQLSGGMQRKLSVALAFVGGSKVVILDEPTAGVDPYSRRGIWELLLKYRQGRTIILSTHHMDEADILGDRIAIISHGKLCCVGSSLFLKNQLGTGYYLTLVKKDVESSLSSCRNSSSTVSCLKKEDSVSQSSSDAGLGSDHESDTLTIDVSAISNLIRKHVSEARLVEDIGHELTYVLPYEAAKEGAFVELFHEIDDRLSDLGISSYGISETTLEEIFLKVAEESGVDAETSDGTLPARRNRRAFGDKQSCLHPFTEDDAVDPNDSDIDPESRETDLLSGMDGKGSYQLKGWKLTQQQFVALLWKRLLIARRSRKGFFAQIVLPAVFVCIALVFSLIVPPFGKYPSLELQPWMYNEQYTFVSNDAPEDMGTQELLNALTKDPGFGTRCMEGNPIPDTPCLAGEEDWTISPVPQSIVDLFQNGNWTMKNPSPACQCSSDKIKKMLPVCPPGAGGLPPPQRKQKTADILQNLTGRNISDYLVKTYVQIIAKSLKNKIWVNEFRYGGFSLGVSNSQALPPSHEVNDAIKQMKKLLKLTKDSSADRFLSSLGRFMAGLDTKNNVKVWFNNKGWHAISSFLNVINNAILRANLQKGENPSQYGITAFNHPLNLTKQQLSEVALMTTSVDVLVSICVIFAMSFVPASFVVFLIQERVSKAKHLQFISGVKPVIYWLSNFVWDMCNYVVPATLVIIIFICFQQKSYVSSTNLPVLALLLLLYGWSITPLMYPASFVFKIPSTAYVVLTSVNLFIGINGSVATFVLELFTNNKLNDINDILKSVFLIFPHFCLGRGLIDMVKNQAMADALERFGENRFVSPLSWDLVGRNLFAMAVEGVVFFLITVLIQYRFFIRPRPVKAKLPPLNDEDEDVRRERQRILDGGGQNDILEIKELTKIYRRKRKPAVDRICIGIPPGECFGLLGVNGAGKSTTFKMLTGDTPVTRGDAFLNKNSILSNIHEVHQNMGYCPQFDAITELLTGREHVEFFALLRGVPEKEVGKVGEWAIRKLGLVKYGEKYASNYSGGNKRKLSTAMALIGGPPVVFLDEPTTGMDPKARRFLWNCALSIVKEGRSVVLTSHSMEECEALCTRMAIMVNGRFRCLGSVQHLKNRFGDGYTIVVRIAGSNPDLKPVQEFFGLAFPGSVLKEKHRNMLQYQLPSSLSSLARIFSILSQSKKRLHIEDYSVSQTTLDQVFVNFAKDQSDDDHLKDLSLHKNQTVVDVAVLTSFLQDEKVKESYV
Cellular Cholesterol Efflux Protocol—J774 macrophages were used to assess the cholesterol efflux properties of synthetic amphipathic α-helical peptides (Bielicki, J. K and Oda, M. N., Biochemistry, 41:2089-2096 (2002); Jia, Z. et al., Biochem. Biophys. Res. Common., 297:206-213 (2002)). This cell line was chosen because cholesterol efflux can be enhanced using a cAMP analog that up-regulates ABCA1 protein expression. The cells were seeded onto 24-well culture plates and labeled for 48 h with [^3H]cholesterol in RPMI 1640 supplemented with 1% fetal bovine serum. The cAMP analog CPT-cAMP was added (0.3 mM, final concentration) to the cells at least 12 h before the initiation of cellular cholesterol efflux. Synthetic peptides in lipid-free form were added to cells in serum-free RPMI. The lipid-free form of full-length recombinant apoA-I was used as a positive control to define apparent ABCA1-dependent cholesterol efflux in the presence and absence of cAMP stimulation. Efflux results were expressed as a percentage of the initial cellular [^3H] appearing in the medium as a function of time subtracting the background efflux obtained using serum-free medium alone.

Data set [2] can be described thus: Relative lipid binding affinity by surface balance technique (monolayer exclusion pressure). Type of data set: physicochemical. The conditions noted are these: for Monolayer exclusion pressure: surface balance technique. From the text: (§1) Relative Lipid Binding Affinity, Hydrophobicity, and Amphiphilicity of Synthetic Peptides—In some experiments, the relative lipid binding affinity of unique peptides was quantified using a surface balance technique (Gillotte, K L. et al., J. Biol. Chem., 274:2021-2028 (1999)). For routine analyses, a turbid solution of dimyristoylphosphatidylcholine (DMPC) was used to assess the relative capacity of synthetic peptides to solubilize phospholipid as described (Palgunachari, M. N. et al., Arterioscler. Thromb. Vasc. Biol., 16:328-338 (1996); McLean, L. R. and Hagaman, K. A., Biochim. Biophys. Acta, 1167:289-295 (1993)). The DMPC was used at a final concentration of 0.08 mg/ml in 10 mM Tris-saline (pH 7.4). The final weight ratio of peptides relative to DMPC was 1:1. The absorbance (400 nm) of samples was monitored continuously over a period of 30 min at 25° C. Hydrophobicity of helical peptides was calculated using the consensus scale (Eisenberg D., Annu. Rev. Biochem., 53:593-623 (1984)). The hydrophobic moment (kcal/mol) of synthetic peptides, which is a measure of helix amphiphilicity, was calculated as described by Eisenberg et al. (Eisenberg, D. et al., Nature, 299:371-374 (1982)).

Data set [3] concerns the target T1, ABCA1. The data set can be described thus: ABCA1 stabilization: immunoblot of ABCA1 protein in J774 macrophage membranes after cAMP withdrawal. Type of data set: cell-based. Also on record: J774 macrophages were used to assess relative ABCA1 protein levels in the presence and absence of synthetic peptides; endogenous in cells; host or cells: J774 macrophages treated with a cAMP analog (CPT-cAMP or 8-bromo-cAMP). The conditions noted are these: 20 μg/ml peptide, 6 h without cAMP, J774 macrophages. On the procedure:
J774 macrophages were incubated (18 h) with 0.5 mM 8-bromo-cAMP in medium containing 0.1% bovine serum albumin to up-regulate ABCA1 protein expression. Washed cells were subsequently exposed for 6 h to bovine serum albumin medium with (+) or without (−) 8-bromo-cAMP and the indicated synthetic peptides (20 μg/ml). None refers to no peptides. The cellular membrane content of ABCA1 protein was measured by immunoblot analysis.
ABCA1 Stabilization—J774 macrophages were used to assess relative ABCA1 protein levels in the presence and absence of synthetic peptides. Cells were grown in 10% fetal bovine serum, extensively rinsed, and incubated (18 h) with Dulbecco's modified Eagle's medium containing 0.1% bovine serum albumin plus the cAMP analog 8-bromo-cAMP. Cells were next exposed to synthetic peptides or serum-free medium in the absence of the cAMP stimulus to evaluate whether ABCA1 protein was stabilized or degraded. Relative levels of ABCA1 protein were assessed by immunoblot analysis of cell membranes (Oram, J. F. et al., J. Biol. Chem., 278:52379-52385 (2003)). ABCA1 was visualized using an enhanced chemiluminescence detection assay.
To assess ABCA1 stabilization, J774 macrophages were treated with a cAMP analog to up-regulate ABCA1 protein expression and then incubated for 6 h without cAMP. In the absence of inducer, ABCA1 protein is rapidly degraded in these cells (FIG. 9). […] Thus, it appears that the helical combinations that stimulate cholesterol efflux also stabilize the ABCA1 transporter.

Data set [4] is described as follows: DMPC clearance assay (solubilization of a turbid phospholipid solution). The class given is physicochemical.
Description: as §1, with “Peptides-In” for “Peptides—In”, “[…].,” for “Hagaman, K. A.,”

The target of data set [5] is T1, ABCA1. The data set can be described thus: ABCA1 stabilization: immunoblot of ABCA1 protein in J774 macrophage membranes after cAMP withdrawal. The class given is cell-based. The note with it: concentration dependence studies, J774 macrophages. Also on record: J774 macrophages were used to assess relative ABCA1 protein levels in the presence and absence of synthetic peptides; endogenous in cells; host or cells: J774 macrophages treated with a cAMP analog (CPT-cAMP or 8-bromo-cAMP).

`CC(=O)N[C@@H](CC(C)C)C(=O)N[C@@H](CCCCN)C(=O)N[C@@H](CC(C)C)C(=O)N[C@@H](CC(C)C)C(=O)N[C@@H](CC(=O)O)C(=O)N[C@@H](CC(N)=O)C(=O)N[C@@H](Cc1c[nH]c2ccccc12)C(=O)N[C@@H](CC(=O)O)C(=O)N[C@@H](CO)C(=O)N[C@H](C(=O)N[C@H](C(=O)N[C@@H](CO)C(=O)N[C@H](C(=O)N[C@@H](Cc1ccccc1)C(=O)N[C@@H](CO)C(=O)N[C@@H](CCCCN)C(=O)N[C@@H](CC(C)C)C(=O)N[C@@H](CCCNC(=N)N)C(=O)N[C@@H](CCC(=O)O)C(=O)N[C@@H](CCC(N)=O)C(=O)N[C@@H](CC(C)C)C(=O)NCC(N)=O)[C@@H](C)O)[C@@H](C)O)C(C)C` [Helical peptide 1] (Ac-LKLLDNWDSVTSTFSKLREQLG-NH2): in data set [1] (75 μg/ml, cAMP-treated macrophages), the “cholesterol efflux relative to that obtained with full-length apoA-I” value is recorded as 15%. Further, the “ABCA1-dependent cholesterol efflux (result in words)” value (“ABCA1-dependent cholesterol efflux” for short) in data set [1] was “failed to stimulate ABCA1-dependent cholesterol efflux”. Further, in data set [2], the “lipid binding affinity (surface balance technique), result in words” value is reported as “identical” and the Monolayer exclusion pressure turned out to be 30 dynes/cm. Besides, the “ABCA1 stabilization (result in words)” value in data set [3] is recorded as “failed to prevent ABCA1 degradation”.

On to `CC(=O)N1CCC[C@H]1C(=O)N[C@@H](C)C(=O)N[C@@H](CC(C)C)C(=O)N[C@@H](CCC(=O)O)C(=O)N[C@@H](CC(=O)O)C(=O)N[C@@H](CC(C)C)C(=O)N[C@@H](CCCNC(=N)N)C(=O)N[C@@H](CCC(N)=O)C(=O)NCC(=O)N[C@@H](CC(C)C)C(=O)N[C@@H](CC(C)C)C(=O)N[C@@H](CC(C)C)C(=O)N[C@@H](CCCCN)C(=O)N[C@@H](CC(C)C)C(=O)N[C@@H](CC(C)C)C(=O)N[C@@H](CC(=O)O)C(=O)N[C@@H](CC(N)=O)C(=O)N[C@@H](Cc1c[nH]c2ccccc12)C(=O)N[C@@H](CC(=O)O)C(=O)N[C@@H](CO)C(=O)N[C@H](C(=O)N[C@H](C(=O)N[C@@H](CO)C(=O)N[C@H](C(=O)N[C@@H](Cc1ccccc1)C(=O)N[C@@H](CO)C(=O)N[C@@H](CCCCN)C(=O)N[C@@H](CC(C)C)C(=O)N[C@@H](CCCNC(=N)N)C(=O)N[C@@H](CCC(=O)O)C(=O)N[C@@H](CCC(N)=O)C(=O)N[C@@H](CC(C)C)C(=O)NCC(N)=O)[C@@H](C)O)[C@@H](C)O)C(C)C` [Helical peptide 9/1] (Ac-PALEDLRQGLLLKLLDNWDSVTSTFSKLREQLG-NH2), for which the “ABCA1-dependent cholesterol efflux” value in data set [1] was “stimulated cholesterol efflux in an ABCA1-dependent manner”. Moreover, in data set [4], the DMPC clearance result is on record as “+”. In data set [3], the “ABCA1 stabilization (result in words)” value is “retained ABCA1 stabilization activity”.

As for `CC(=O)N1CCC[C@H]1C(=O)N[C@H](C(=O)N[C@@H](CC(C)C)C(=O)N[C@@H](CCC(=O)O)C(=O)N[C@@H](CO)C(=O)N[C@@H](Cc1ccccc1)C(=O)N[C@@H](CCCCN)C(=O)N[C@H](C(=O)N[C@@H](CO)C(=O)N[C@@H](Cc1ccccc1)C(=O)N[C@@H](CC(C)C)C(=O)N[C@@H](CO)C(=O)N[C@@H](C)C(=O)N[C@@H](CC(C)C)C(=O)N[C@@H](CCC(=O)O)C(=O)N[C@@H](CCC(=O)O)C(=O)N[C@@H](Cc1ccc(O)cc1)C(=O)N[C@H](C(=O)N[C@@H](CCCCN)C(=O)N[C@@H](CCCCN)C(=O)N[C@@H](CC(C)C)C(=O)N[C@@H](CC(N)=O)C(N)=O)[C@@H](C)O)C(C)C)C(C)C` [Helical peptide 10] (Ac-PVLESFKVSFLSALEEYTKKLN-NH2), the “ABCA1-dependent cholesterol efflux” value is given as “does not mediate ABCA1-dependent cholesterol efflux” in data set [1] (listed as Helix 10) and “poor mediator of cellular cholesterol efflux” in data set [1] (listed as helix 10). For the same compound, the Monolayer exclusion pressure in data set [2] is recorded as 28 dynes/cm. Moreover, the “ABCA1 stabilization (result in words)” value in data set [3] is recorded as “failed to prevent ABCA1 degradation”; in data set [3] (listed as Helix 10), “nor does it stabilize ABCA1”.

Turning to “full-length apoA-I: full-length recombinant His-tagged apolipoprotein A-I from a bacterial expression system, positive control [reference compound]”, in data set [1] (cAMP-treated J774 cells), the “concentration at which cholesterol efflux reached maximal levels” value was 10 µg/mL. For the same compound, in data set [1], the “ABCA1-dependent cholesterol efflux” value is reported as “increased dramatically upon the up-regulation of the ABCA1 transporter”. Also, in data set [5], the “lowest concentration that prevented ABCA1 degradation” value is roughly 10 µg/mL. Besides, the “lipid binding affinity (surface balance technique), result in words” value in data set [2] is reported as “identical”.
